Reference: ChEMBL document CHEMBL1201862, “PubChem BioAssay data set” (2004)
Activity calls are given as the source filed them. Rule as the data show it, for most assays here: actives have a measured EC50 and inactives only a lower limit.

Columns and labels:
[1] = target: G-protein coupled receptor 55 (Homo sapiens, UniProt Q9Y2T6); experiment: inhibition of LPI-stimulated GPR55 beta-arrestin translocation – imaging, U2OS, beta-arrestin-GFP, LPI agonist, primary screen (AID 2013); assay type: functional;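 also: antagonist potency measured as reduced agonist-driven arrestin aggregation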
[2] = target: T1, Replicative DNA helicase DnaB (Mycobacterium tuberculosis, UniProt P9WMR3); experiment: DnaB intein splicing inhibitors, dose response, biochemical, cell-free fluorescence (AID 449749); assay type: functional
T1 sequence (P9WMR3 whole entry): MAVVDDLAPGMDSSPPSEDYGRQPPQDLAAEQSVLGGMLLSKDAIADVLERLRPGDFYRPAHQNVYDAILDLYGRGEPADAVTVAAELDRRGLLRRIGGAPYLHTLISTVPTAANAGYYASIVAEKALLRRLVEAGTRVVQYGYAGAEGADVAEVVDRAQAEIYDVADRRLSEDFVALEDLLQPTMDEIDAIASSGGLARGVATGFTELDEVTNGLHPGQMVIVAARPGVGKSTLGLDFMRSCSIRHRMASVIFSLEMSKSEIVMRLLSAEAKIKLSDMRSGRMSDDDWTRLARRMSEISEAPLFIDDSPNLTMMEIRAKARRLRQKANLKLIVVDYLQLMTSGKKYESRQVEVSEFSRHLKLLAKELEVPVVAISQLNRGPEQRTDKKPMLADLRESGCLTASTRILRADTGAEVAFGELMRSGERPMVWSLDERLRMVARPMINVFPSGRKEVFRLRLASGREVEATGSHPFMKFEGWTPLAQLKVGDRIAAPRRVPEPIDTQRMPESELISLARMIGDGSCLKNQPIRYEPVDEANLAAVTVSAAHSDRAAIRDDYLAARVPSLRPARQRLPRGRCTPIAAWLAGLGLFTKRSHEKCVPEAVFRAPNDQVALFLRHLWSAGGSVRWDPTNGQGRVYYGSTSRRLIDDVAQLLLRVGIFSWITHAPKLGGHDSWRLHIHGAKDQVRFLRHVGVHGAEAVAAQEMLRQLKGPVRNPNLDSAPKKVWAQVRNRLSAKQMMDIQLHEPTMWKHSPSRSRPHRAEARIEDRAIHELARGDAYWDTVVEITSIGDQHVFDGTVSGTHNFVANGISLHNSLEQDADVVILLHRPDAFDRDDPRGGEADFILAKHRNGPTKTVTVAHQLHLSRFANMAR

[3] = target: Induced myeloid leukemia cell differentiation protein Mcl-1 (Homo sapiens, UniProt Q07820); assay type: functional
[4] = alpha-synuclein stem-loop luciferase translation blockers – H4 neuroglioma cells, luminescence, confirmation (AID 1988); assay type: functional, cell-based
[5] = target: T2, RNA-binding protein pos-1 (Caenorhabditis elegans, UniProt G5EF15); experiment: disruptors of C. elegans POS-1 RNA interaction – biochemical, fluorescence polarization, dose response (AID 1964);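 also: purified POS-1 fused to maltose binding protein made in E. coli; potency of compounds blocking POS-1 binding to fluorescent RNA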
T2 sequence (G5EF15 whole entry): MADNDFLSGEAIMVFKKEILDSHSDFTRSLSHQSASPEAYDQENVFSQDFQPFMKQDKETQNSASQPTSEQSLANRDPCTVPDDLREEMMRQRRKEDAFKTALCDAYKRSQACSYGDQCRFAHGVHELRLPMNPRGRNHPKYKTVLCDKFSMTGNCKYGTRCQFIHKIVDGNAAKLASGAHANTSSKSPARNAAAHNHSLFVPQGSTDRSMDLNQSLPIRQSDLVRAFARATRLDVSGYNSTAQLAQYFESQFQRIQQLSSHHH

[6] = tested on: Streptococcus sp. 'group A'; experiment: Streptococcus pyogenes SK(-)GAS viability under kanamycin – luminescence, BacTiterGlo, confirmation, counter-screen for streptokinase expression inhibitor project, dose response (AID 1900); assay type: functional, organism-based
[7] = NIH3T3 cell viability loss – ATP luminescence, mouse fibroblasts, counter-screen, dose response (AID 2010); assay type: functional, cell-based;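 also: cells exposed to compound for about 90 hours before reading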
[8] = Luminescence Cell-Based Dose Response HTS to Identify Inhibitors of 5'UTR Stem-Loop Driven Prion Protein mRNA Translation in H4 Neuroglioblastoma Cells. [Related pubchem assays: 1827 (Project Summary), 1813 (Primary HTS)]; assay type: functional
[9] = target: T3, Histone-lysine N-methyltransferase NSD2 (Homo sapiens, UniProt O96028); assay type: biochemical
T3 sequence (O96028 whole entry): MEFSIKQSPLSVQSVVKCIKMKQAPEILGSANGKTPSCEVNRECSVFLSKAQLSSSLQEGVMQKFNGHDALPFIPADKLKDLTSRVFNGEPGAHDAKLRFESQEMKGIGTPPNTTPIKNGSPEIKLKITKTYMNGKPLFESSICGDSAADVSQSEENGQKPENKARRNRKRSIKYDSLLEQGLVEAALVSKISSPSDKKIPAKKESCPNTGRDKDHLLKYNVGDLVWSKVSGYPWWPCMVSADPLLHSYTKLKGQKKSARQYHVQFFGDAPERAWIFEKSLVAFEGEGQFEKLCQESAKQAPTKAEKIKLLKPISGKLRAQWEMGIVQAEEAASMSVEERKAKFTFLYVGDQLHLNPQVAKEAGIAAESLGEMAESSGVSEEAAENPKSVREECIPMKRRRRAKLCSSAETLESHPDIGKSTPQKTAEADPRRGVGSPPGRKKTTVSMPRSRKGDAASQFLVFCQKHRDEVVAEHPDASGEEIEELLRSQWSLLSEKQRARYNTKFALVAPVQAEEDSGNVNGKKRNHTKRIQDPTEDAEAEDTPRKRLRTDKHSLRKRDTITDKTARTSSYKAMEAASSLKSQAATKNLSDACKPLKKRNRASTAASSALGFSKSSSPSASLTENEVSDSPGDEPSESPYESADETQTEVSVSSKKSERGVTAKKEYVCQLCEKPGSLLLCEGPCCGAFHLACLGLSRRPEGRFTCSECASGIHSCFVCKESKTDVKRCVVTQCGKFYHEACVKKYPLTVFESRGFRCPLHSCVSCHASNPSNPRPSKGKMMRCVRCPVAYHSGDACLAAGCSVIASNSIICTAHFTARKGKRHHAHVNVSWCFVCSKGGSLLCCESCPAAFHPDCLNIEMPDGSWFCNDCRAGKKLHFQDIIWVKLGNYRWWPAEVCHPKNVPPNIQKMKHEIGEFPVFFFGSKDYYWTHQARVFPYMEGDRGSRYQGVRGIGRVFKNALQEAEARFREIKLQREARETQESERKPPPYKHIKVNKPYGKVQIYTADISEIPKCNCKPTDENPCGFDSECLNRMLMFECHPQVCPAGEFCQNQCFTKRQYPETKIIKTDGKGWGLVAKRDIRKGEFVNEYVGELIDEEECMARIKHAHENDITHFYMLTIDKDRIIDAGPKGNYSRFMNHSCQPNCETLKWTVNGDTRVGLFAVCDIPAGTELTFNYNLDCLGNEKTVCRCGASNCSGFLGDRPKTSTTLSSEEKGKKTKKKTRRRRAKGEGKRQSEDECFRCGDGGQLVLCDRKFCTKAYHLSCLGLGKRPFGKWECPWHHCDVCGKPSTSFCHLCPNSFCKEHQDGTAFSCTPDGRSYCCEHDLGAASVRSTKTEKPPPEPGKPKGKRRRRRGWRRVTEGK

Sequence of G-protein coupled receptor 55 (Q9Y2T6 whole entry): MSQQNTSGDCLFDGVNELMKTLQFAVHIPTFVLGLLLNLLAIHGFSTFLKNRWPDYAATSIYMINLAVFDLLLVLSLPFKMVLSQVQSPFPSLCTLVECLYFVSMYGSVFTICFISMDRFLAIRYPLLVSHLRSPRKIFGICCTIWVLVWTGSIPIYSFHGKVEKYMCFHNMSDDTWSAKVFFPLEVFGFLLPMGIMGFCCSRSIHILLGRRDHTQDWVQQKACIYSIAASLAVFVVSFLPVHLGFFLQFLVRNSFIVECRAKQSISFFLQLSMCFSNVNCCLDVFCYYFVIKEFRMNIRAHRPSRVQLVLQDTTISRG
Sequence of Induced myeloid leukemia cell differentiation protein Mcl-1 (Q07820 whole entry): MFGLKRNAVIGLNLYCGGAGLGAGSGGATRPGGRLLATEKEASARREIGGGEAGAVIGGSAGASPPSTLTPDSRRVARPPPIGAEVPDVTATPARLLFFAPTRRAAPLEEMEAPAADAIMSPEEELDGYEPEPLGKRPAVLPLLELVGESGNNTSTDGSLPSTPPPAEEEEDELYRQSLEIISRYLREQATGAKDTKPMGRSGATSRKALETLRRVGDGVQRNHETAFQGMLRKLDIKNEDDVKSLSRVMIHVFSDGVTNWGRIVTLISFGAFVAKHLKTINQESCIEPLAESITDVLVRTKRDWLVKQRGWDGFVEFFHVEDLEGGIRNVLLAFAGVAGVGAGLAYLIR

CC(=O)N(C1=C(Cl)C(=O)c2ccccc2C1=O)C1CCCCC1
IC50 [1]: 4.55 µM (active)
AC50 [2]: 2.98 µM (active)
IC50 [3]: 14.5 µM (active)
EC50 [4]: > 120 µM (not active)
EC50 [5]: 139 µM (active)
EC50 [6]: 6.92 µM (active)
EC50 [7]: 3.26 µM (active)
EC50 [8]: 20.5 µM (active)

Oc1ccc(-c2cn3c(n2)SCC3)cc1O
AC50 [9]: 2.95 µM (active)
IC50 [3]: 2.26 µM (active)
EC50 [5]: 3.63 µM (active)

Cc1ccc(NC2=C/C(=N\S(=O)(=O)c3cccs3)c3ccccc3C2=O)c(C)c1
IC50 [1]: 1.87 µM (active)
AC50 [2]: 0.339 µM (active)
EC50 [4]: 8.43 µM (inconclusive)
EC50 [6]: 2.99 µM (active)
EC50 [7]: < 6 µM (inconclusive)
EC50 [8]: 8.59 µM (inconclusive)

COc1ccc(/C=N/NC(=O)c2nn(-c3ccccc3)c(=O)c3c(N)scc23)cc1
AC50 [9]: > 20 µM (inactive)
